Drawing on ChEMBL document CHEMBL5223073, “Andrographolide suppresses cisplatin-induced endothelial hyperpermeability through activation of PI3K/Akt and eNOS -derived nitric oxide” (Bioorg Med Chem, 2020), this text covers Activity and inhibition for one compound.

Activity calls are given as the source filed them. No cut-off for these calls is given here.

The test system of test [1] is HUVEC. The test can be described thus: Induction of NO production in cisplatin-treated HUVEC cells assessed as increase in fluorescence signal at 30 uM preincubated with PI3K inhibitor, wortmannin for 3 hrs followed by compound addition and measured immediately by DAF-FM dye based analysis. In kind it is functional, cell-based. The conditions noted are these: Homo sapiens.

The subject of test [2] is HUVEC. The test can be described thus: Downregulation of cisplatin-induced ICAM1 protein expression in HUVEC cells at 30 uM preincubated with eNOS inhibitor, N(G)-nitro-L-arginine methyl ester followed by compound addition and further incubated for 1 hr by Western blot analysis. It counts as functional, cell-based. The conditions noted are these: Homo sapiens.
Test [3] has as its system HUVEC. The test can be described thus: Effect on total eNOS protein level in cisplatin-treated HUVEC cells at 30 uM measured after 5 to 240 mins by Western blot analysis. The conditions noted are these: Homo sapiens, time 5-240 min. It counts as functional, cell-based. (Immunoblotting shows a protein as a band on a membrane.)
Test [4] relates to HUVEC. In words: Improvement in cisplatin-induced endothelial monolayer integrity in HUVEC cells assessed as reduction in transmembrane movement of albumin at 30 uM preincubated with compound followed by cisplatin stimulation and measured after 2 hrs. It counts as functional, cell-based. The conditions noted are these: Homo sapiens.
Test [5] relates to HUVEC. In words: Induction of NO production in cisplatin-treated HUVEC cells assessed as increase in fluorescence signal at 30 uM preincubated with eNOS inhibitor, N(G)-nitro-L-arginine methyl ester for 3 hrs followed by compound addition and measured immediately by DAF-FM dye based analysis. The conditions noted are these: Homo sapiens. It counts as functional, cell-based.
The target in test [6] is T1, Nitric oxide synthase 3 (Homo sapiens) (UniProt P29474).
T1 sequence (whole entry): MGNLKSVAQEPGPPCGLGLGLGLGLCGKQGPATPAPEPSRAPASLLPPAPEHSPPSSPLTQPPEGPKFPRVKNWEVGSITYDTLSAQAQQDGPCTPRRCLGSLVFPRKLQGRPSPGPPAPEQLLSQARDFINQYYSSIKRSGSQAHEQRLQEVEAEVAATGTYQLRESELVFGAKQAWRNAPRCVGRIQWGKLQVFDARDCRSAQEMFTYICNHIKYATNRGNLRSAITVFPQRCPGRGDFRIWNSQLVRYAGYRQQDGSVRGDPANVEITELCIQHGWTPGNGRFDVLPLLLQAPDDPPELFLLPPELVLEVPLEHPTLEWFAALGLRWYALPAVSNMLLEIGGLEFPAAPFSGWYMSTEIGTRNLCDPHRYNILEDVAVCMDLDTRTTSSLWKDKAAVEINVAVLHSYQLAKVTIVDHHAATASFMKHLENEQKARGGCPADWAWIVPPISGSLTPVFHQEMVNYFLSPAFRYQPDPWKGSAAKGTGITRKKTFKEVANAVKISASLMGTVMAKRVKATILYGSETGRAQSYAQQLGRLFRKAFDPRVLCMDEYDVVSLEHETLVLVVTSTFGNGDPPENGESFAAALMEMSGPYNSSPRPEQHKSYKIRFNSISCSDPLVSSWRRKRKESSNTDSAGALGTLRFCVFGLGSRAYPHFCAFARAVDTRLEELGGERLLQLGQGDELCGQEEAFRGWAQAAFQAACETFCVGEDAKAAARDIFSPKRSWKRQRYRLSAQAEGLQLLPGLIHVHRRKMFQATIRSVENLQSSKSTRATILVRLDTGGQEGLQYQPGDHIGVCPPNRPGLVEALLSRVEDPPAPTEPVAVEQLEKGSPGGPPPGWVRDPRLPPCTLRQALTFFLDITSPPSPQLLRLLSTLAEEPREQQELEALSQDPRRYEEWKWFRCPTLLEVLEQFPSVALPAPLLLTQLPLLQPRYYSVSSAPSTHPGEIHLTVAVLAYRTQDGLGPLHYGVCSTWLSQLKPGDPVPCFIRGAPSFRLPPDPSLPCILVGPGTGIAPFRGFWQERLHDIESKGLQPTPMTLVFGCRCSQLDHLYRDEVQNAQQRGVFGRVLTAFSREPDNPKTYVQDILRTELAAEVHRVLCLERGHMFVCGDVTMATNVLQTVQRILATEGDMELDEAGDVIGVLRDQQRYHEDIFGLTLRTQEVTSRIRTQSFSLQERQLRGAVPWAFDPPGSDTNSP
The test can be described thus: Activation of eNOS activity in cisplatin-treated HUVEC cells assessed as increase in intracellular cGMP level at 30 uM preincubated with eNOS inhibitor, N(G)-nitro-L-arginine methyl ester followed by compound addition and further incubated for 15 mins by radioimmunoassay. In kind it is cell-based.

Test [7] has as its target T2, NF-kappa-B inhibitor alpha (Homo sapiens) (UniProt P25963).
T2 sequence (whole entry): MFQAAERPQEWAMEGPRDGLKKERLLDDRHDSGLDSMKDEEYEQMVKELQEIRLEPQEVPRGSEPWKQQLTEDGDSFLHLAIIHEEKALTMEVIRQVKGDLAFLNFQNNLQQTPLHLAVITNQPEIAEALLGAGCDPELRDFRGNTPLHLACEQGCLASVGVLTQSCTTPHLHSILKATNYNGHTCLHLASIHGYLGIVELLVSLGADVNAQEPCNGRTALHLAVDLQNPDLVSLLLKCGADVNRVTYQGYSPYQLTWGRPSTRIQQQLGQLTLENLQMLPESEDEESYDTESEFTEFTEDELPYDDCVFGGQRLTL
The test can be described thus: Inhibition of cisplatin-induced phosphorylation of IkappaBalpha at Ser32/36 residue in HUVEC cells at 30 uM preincubated with PI3K inhibitor, wortmannin followed by compound addition and further incubated for 1 hr by Western blot analysis. It counts as cell-based.

Test [8] relates to HUVEC. In words: Upregulation of cytosolic p65 level in cisplatin-treated HUVEC cells at 30 uM preincubated with eNOS inhibitor, N(G)-nitro-L-arginine methyl ester followed by compound addition and further incubated for 1 hr by Western blot analysis. In kind it is functional, cell-based. To be noted: Homo sapiens.
Test [9] relates to HUVEC. The test can be described thus: Inhibition of cisplatin-induced store operated Ca2+ release in HUVEC cells at 30 uM preincubated with compound followed by cisplatin stimulation by Fura-2 AM staining based calcium influx assay. It counts as functional, cell-based. To be noted: Homo sapiens.
In test [10] the test system is HUVEC. In words: Improvement in cisplatin-induced endothelial monolayer integrity in HUVEC cells assessed as increase in transendothelial electric resistance at 30 uM preincubated with compound followed by cisplatin stimulation and measured after 45 mins. It counts as functional, cell-based. To be noted: Homo sapiens.
The test system of test [11] is HUVEC. The test can be described thus: Upregulation of cytosolic p65 level in cisplatin-treated HUVEC cells at 30 uM preincubated with PI3K inhibitor, wortmannin followed by compound addition and further incubated for 1 hr by Western blot analysis. In kind it is functional, cell-based. The conditions noted are these: Homo sapiens.
Test [12] relates to HUVEC. In words: Improvement in cisplatin-induced endothelial monolayer integrity in HUVEC cells assessed as increase in transendothelial electric resistance at 30 uM preincubated with compound in presence of eNOS inhibitor, N(G)-nitro-L-arginine methyl ester followed by cisplatin stimulation and measured after 45 mins. It counts as functional, cell-based. The conditions noted are these: Homo sapiens.

For the next test, the system named is U-937. The test can be described thus: Inhibition of cisplatin-induced ICAM1 dependent HUVEC cells adhesion to human U-937 cells at 10 to 30 uM preincubated with HUVEC cells for 4.5 hrs in presence of cisplatin followed by U-937 cell suspension addition and measured after 1 hr by BCECF fluorescent probe based assay. In kind it is functional. The conditions noted are these: dose 10-30 µM, time 5.5 hrs.

Test [13] addresses T1, Nitric oxide synthase 3 (Homo sapiens). In words: Activation of eNOS activity in cisplatin-treated HUVEC cells assessed as increase in eNOS phosphorylation at Ser1177 residue at 30 uM measured after 5 to 60 mins by Western blot analysis. To be noted: filed as activator, time 5-60 min. In kind it is cell-based.

Regarding `C=C1CC[C@@H]2[C@](C)(CO)[C@H](O)CC[C@@]2(C)[C@@H]1C/C=C1/C(=O)OC[C@H]1O` [ANDROGRAPHOLIDE], the outcome (in the test with HUVEC [1]; with HUVEC [2]; with HUVEC [3]; in the test on HUVEC [5]; in test [6]; in the test on HUVEC [8]) was inactive. Further, the outcome in the test with HUVEC [11] and in the test on HUVEC [12] was inactive. For the same compound, the outcome (with HUVEC [4]; with HUVEC [10]; in test [13]) was Active. In addition, in test [7], the inhibition entry was “inactive”. For the same compound, the inhibition result with HUVEC [9] and with U-937 was “Active” throughout.
